The values below are quoted from earlier work in article PMC8542980, “The Scavenger Function of Liver Sinusoidal Endothelial Cells in Health and Disease” (Frontiers in Physiology, 2021).

Read-outs that look alike come from different tables or passages of the source.

Data set [1] has as its system LSECs.
Data set [2] deals with endocytic hyaluronan receptor.
Details of data set [3]: method as in Fraser et al., 1981. Particulars: rabbit, ref Fraser et al., 1981.
Details of data set [4]: method as in Fraser et al., 1984. Particulars: human, ref Fraser et al., 1984.
Where [5] appears, read: rat, 1 μg, tail vein, ref Smedsrød and Einarsson, 1990.
Setting [6] is: ref Smedsrød et al., 1984, Laurent et al., 1986b.
[7] abbreviates: rats, whole body autoradiography 10 min after injection, ref Fraser et al., 1985.

For `C[C@@H]1C[C@@H]([C@H](O)CC2CC(=O)NC(=O)C2)C(=O)[C@@H](C)C1` [cycloheximide], the “effect on the endocytosis of hyaluronan by cultured LSECs” value in data set [1] (inhibitor of protein synthesis, ref McGary et al., 1989) is reported as “no effect”.

Take Dextran sulfate: the “inhibition of the binding of hyaluronan by LSECs” value in data set [2] (ref Raja et al., 1988, McGary et al., 1989) is given as “can also inhibit”.

With “^125I-tPA: 125I-labeled tissue plasminogen activator”, under setting [5], the “% eliminated with t1/2α” value is 65%; the “% eliminated with t1/2β” value was 35%; the “Decay of plasma/blood radioactivity, t1/2α” value is given as 0.6 min; the “Decay of plasma/blood radioactivity, t1/2β” value is 6.4 min.

With chondroitin sulfate, in data set [2] (ref Smedsrød et al., 1984), the “inhibition of the uptake and binding of hyaluronan by LSECs” value is reported as “can inhibit”. Besides, in data set [2] (setting [6]), the “affinity of the rat receptor compared with hyaluronan of the same chain length” value is recorded as “threefold greater affinity”.

Turning to “chondroitin sulfate [[^3H]-chondroitin sulfate (CS)]”, the “site of main uptake” value (rat, clearance rate not examined, ref Smedsrød et al., 1985b) is “Clearance rate not examined but the main uptake was in LSECs”.

On to heparan sulfate, for which the “affinity of the rat receptor” value in data set [2] (setting [6]) was “no affinity”.

heparin [listing 1 of 2 here]: the “Decay of plasma/blood radioactivity, t1/2” value (rat, 0.1 IU/kg, tail vein, ref Øie et al., 2008) is recorded as 1.71 min. Also, the recovered in liver (rat, after 15 min, ref Øie et al., 2008) is recorded as 71%.

Take heparin [listing 2 of 2 here]: in data set [2] (setting [6]), the “affinity of the rat receptor” value is listed as “no affinity”.

For hyaluronan, the uptake in liver (rat, at 30 min after injection, ref Dahl et al., 1988) is 79%. Further, the “Decay of plasma/blood radioactivity, t1/2α” value (rat, tail vein, MW = 2.5 × 10^5, ref Dahl et al., 1988) is given as 0.9 min.

hyaluronan [[^3H]-hyaluronan]: in data set [3] (30–32 μg, marginal ear vein), the “Decay of plasma/blood radioactivity, t1/2” value is 2.5 to 4.5 min. The uptake in liver in data set [3] (at 19 min after injection) was 88%. Further, under setting [7], the “injected radioactivity found in Kupffer cells” value is reported as “none” and the “injected radioactivity found in the cytoplasm of LSECs” value was “approximately 90%”. Further, the “Decay of plasma/blood radioactivity, t1/2” value in data set [4] (60–130 μg, cubital vein) was 2.6 to 5.5 min. Moreover, the eliminated from blood in data set [4] (after 10 min) is listed as 90%. For the same molecule, in data set [1] (LSEC cultures, 37°C, after addition of ligand, ref Smedsrød et al. (1984)), the “time to appearance of degradation products in the supernatant” value is not above 30 min. Also, the “time to steady state levels of internalized ligand and degradation products” value in data set [1] (LSEC cultures, 37°C, into the incubation, ref Smedsrød et al. (1984)) was 60 to 75 min.

As for “hyaluronan [hyaluronan of 6.4 × 10^6 Da]”, in data set [2] (endocytic hyaluronan receptor of LSECs, ref Laurent et al., 1986b, read-out: dissociation constant), the Kd was 9 pM.

B1: ^125I-TC-nidogen: nidogen labeled with 125I-tyramine cellobiose (protein, UniProt P14543 29-1247, looked up)
Nidogen-1: LSRQELFPFGPGQGDLELEDGDDFVSPALELSGALRFYDRSDIDAVYVTTNGIIATSEPPAKESHPGLFPPTFGAVAPFLADLDTTDGLGKVYYREDLSPSITQRAAECVHRGFPEISFQPSSAVVVTWESVAPYQGPSRDPDQKGKRNTFQAVLASSDSSSYAIFLYPEDGLQFHTTFSKKENNQVPAVVAFSQGSVGFLWKSNGAYNIFANDRESVENLAKSSNSGQQGVWVFEIGSPATTNGVVPADVILGTEDGAEYDDEDEDYDLATTRLGLEDVGTTPFSYKALRRGGADTYSVPSVLSPRRAATERPLGPPTERTRSFQLAVETFHQQHPQVIDVDEVEETGVVFSYNTDSRQTCANNRHQCSVHAECRDYATGFCCSCVAGYTGNGRQCVAEGSPQRVNGKVKGRIFVGSSQVPIVFENTDLHSYVVMNHGRSYTAISTIPETVGYSLLPLAPVGGIIGWMFAVEQDGFKNGFSITGGEFTRQAEVTFVGHPGNLVIKQRFSGIDEHGHLTIDTELEGRVPQIPFGSSVHIEPYTELYHYSTSVITSSSTREYTVTEPERDGASPSRIYTYQWRQTITFQECVHDDSRPALPSTQQLSVDSVFVLYNQEEKILRYALSNSIGPVREGSPDALQNPCYIGTHGCDTNAACRPGPRTQFTCECSIGFRGDGRTCYDIDECSEQPSVCGSHTICNNHPGTFRCECVEGYQFSDEGTCVAVVDQRPINYCETGLHNCDIPQRAQCIYTGGSSYTCSCLPGFSGDGQACQDVDECQPSRCHPDAFCYNTPGSFTCQCKPGYQGDGFRCVPGEVEKTRCQHEREHILGAAGATDPQRPIPPGLFVPECDAHGHYAPTQCHGSTGYCWCVDRDGREVEGTRTRPGMTPPCLSTVAPPIHQGPAVPTAVIPLPPGTHLLFAQTGKIERLPLEGNTMRKTEAKAFLHVPAKVIIGLAFDCVDKMVYWTDITEPSIGRASLHGGEPTTIIRQDLGSPEGIAVDHLGRNIFWTDSNLDRIEVAKLDGTQRRVLFETDLVNPRGIVTDSVRGNLYWTDWNRDNPKIETSYMDGTNRRILVQDDLGLPNGLTFDAFSSQLCWVDAGTNRAECLNPSQPSRRKALEGLQYPFAVTSYGKNLYFTDWKMNSVVALDLAISKETDAFQPHKQTRLYGITTALSQCPQGHNYCSVNNGGCTHLCLATPGSRTCRCPDNTLGVDCIEQK
modifications: 125I-tyramine cellobiose label
notes: nidogen labeled with 125I-tyramine cellobiose
Consider B1, for which the recovered in liver (rat, after 1 h, ref Smedsrød et al., 1989) is 78%. Also, the “Decay of plasma/blood radioactivity, t1/2” value (rat, trace amounts, tail vein, ref Smedsrød et al., 1989) was 2 to 3 min.
